Here are results for one compound from US20050038103A1, “Uses of dorzolamide” (priority 2003, published 2005).

For data set [1] the following is noted: cited from earlier work.
The nature of data set [2]: Night vision of patients being treated for glaucoma. It counts as in vivo, human.
For data set [3] the following is noted: Sponsel et al., 1997; Harris et al., 1999; cited from earlier work.
The nature of data set [4]: Visual fields in a patient with retinitis pigmentosa. Particulars: for improvement in visual field: gtts (i) ou bid.
Data set [5] in a line: Visual acuity (Snellen's chart) in patients with age-related macular degeneration. Particulars: AMD patients.

As to `CCN[C@H]1C[C@H](C)S(=O)(=O)c2sc(S(N)(=O)=O)cc21` [dorzolamide], in data set [1] (Harris et al., 1996), the “capillary dye transit in macula and optic nerve head” value is “enhance capillary dye transit in macula and optic nerve head”. The retinal arteriovenous passage entry in data set [1] (Harris et al., 1999, 1996, 2001) was “accelerate retinal arteriovenous passage”. Further, in data set [1] (Schmidt et al., 1998), the “increase of ocular pulse amplitude” value was 18-19%. The night vision entry in data set [2] is “improved the night vision”. Further, in data set [3], the contrast sensitivity result is on record as “enhance contrast sensitivity”. Also, the perimetric light sensitivity result in data set [3] was “increase perimetric light sensitivity”. Further, the safety entry in data set [4] (gtts (i) bid) and in data set [5] (gtts (i) bid) was “very safe” each time. The “improvement in visual field” value in data set [4] (five weeks) was “marked improvement in visual field in the left eye”; in data set [4] (nine weeks), “still more marked improvement in both eyes”. The “improvement in visual acuity (one more line on Snellen's chart)” value in data set [5] (gtts (i) bid in one eye, one month) is recorded as “Most patients demonstrated objective (and subjective) improvement in visual acuity in one month”.
